The results in this text go back to patent US20240116985A1, “STAPLED PEPTIDES AND METHODS THEREOF” (priority 2020, published 2024).

The target in data set [1] is T1, full-length beta-Catenin (Uniprot ID P35222) (Homo sapiens, UniProt P35222).
T1 construct: 10 nM full-length beta-Catenin (Uniprot ID P35222)
T1 sequence (P35222 1-781): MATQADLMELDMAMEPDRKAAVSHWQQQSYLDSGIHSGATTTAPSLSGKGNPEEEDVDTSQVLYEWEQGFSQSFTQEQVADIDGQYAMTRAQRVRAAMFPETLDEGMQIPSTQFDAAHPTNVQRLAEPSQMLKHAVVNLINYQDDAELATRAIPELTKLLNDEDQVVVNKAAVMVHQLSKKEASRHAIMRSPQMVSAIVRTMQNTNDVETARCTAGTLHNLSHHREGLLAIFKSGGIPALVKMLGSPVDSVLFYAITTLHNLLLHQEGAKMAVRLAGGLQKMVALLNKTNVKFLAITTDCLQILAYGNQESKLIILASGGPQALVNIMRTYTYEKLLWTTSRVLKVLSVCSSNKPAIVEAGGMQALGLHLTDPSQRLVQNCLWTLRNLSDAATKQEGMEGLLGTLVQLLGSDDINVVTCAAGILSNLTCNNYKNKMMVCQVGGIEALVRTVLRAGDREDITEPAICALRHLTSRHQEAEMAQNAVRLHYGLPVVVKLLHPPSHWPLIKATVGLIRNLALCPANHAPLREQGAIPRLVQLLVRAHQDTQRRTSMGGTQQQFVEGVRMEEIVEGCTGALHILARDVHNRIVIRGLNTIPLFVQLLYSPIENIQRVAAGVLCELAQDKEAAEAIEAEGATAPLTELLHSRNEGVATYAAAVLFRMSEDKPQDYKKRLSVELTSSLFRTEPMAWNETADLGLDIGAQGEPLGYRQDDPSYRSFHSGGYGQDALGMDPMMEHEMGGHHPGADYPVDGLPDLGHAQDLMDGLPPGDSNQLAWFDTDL
The data set is described as follows: Fluorescence polarization IC50 (beta-catenin / 5FAM-TCF4 10-53 competition). It counts as binding. The conditions noted are these: read-out: beta-Catenin FP IC50.

Data set [2] is described as follows: CHI Log D procedure. The class given is physicochemical. The conditions noted are these: pH 7.4, CHI Log D.
A short description of data set [3]: Solubility in PBS. It counts as physicochemical. A digest of the protocol:
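PBS sample ultracentrifuged; supernatant run on HPLC vs. 50 μM peptide in DMSO standard. Solubility = (PBS peak area / DMSO peak area) × 50 uM.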

The target of data set [4] is T2, beta-catenin/TCF4 engagement (Homo sapiens, UniProt P35222).
T2 construct: expressed in transfected cells; host or cells: HEK293
T2 sequence (P35222 1-781): T1 sequence (P35222 1-781)
The data set is described as follows: Nano-BRET target engagement assay (B-cat-Halo & TCF4-Luc in HEK293 cells). It counts as cell-based. Particulars: read-out: NanoBRET Abs IC50. On the technique in general: Bioluminescence resonance energy transfer reports proximity on the nanometre scale.

Molecules are shown by their SMILES. Values after ≈ are worked out from the molar mass of the structure shown. Like-named read-outs stand apart in the source and are kept apart here. Where only a bound is given, the exact number is not on record here.

The term IC50 denotes the point on the concentration scale where inhibition reaches its midpoint. The chromatographic logD is a lipophilicity value derived from retention on a column. Low readings indicate a more hydrophilic compound, high ones a more lipophilic compound. The Solubility is the concentration that dissolves in the medium under given conditions. A lower Solubility goes with little dissolved substance.

Consider `CC(=O)N1CCC[C@]12CC=CCCCC1(CCCC=CCCCOC(=O)N3CC[C@@](C(=O)N[C@@H](Cc4ccccc4Cl)C(=O)N[C@@H](Cc4csc5ccccc45)C(=O)N[C@@H](CCC(N)=O)C(N)=O)(C3)NC(=O)[C@H](CC3CCCCC3)NC(=O)[C@H](Cc3ccccc3)NC(=O)[C@H](C)NC(=O)[C@H](C)NC(=O)[C@H](CC(=O)O)NC(=O)[C@H](CC(=O)O)NC1=O)NC(=O)[C@H](CC1CCCCC1)NC(=O)[C@H](CC(=O)O)NC2=O` (stereo partly drawn) [I-1107, Ac-PL3-Asp-Cha-B5-Asp-Asp-Ala-Ala-Phe-Cha-PyrS2-2C1F-BztA-Gln-NH2], for which the IC50 came out at 0.018 µM in data set [1] and 11.8 µM in data set [4]. In data set [2], this molecule gave a chromatographic logD of 2.64. Besides, the “Solubility” value in data set [3] was determined as 10 µM (≈ 20.1 µg/mL).
Take `CC(=O)N1CCC[C@]12CC=CCCCC1(CCCC=CCCCOC(=O)N3CC[C@@](C(=O)N[C@@H](Cc4ccccc4Cl)C(=O)N[C@@H](Cc4csc5ccccc45)C(=O)N[C@@H](CCC(N)=O)C(N)=O)(C3)NC(=O)[C@H](CO)NC(=O)[C@H](Cc3ccccc3)NC(=O)[C@H](C)NC(=O)[C@H](C)NC(=O)[C@H](CC(=O)O)NC(=O)[C@H](CC(=O)O)NC1=O)NC(=O)[C@H](Cc1cccc3ccccc13)NC(=O)[C@H](CC(=O)O)NC2=O` (stereo partly drawn) [I-1108, Ac-PL3-Asp-1NapA-B5-Asp-Asp-Ala-Ala-Phe-Ser-PyrS2-2C1F-BztA-Gln-NH2]: the half-maximal inhibitory concentration (IC50) is 0.018 µM in data set [1] and more than 20 µM in data set [4]. In data set [2], this molecule showed a chromatographic logD of 2.29. In addition, the Solubility in data set [3] (Solubility (uM)) was 42 µM (≈ 83.6 µg/mL).
`CC(=O)N1CCC[C@]12CC=CCCCC1(CCCC=CCCCOC(=O)N3CC[C@@](C(=O)N[C@@H](Cc4ccccc4Cl)C(=O)N[C@@H](Cc4csc5ccccc45)C(=O)N[C@@H](CCC(N)=O)C(N)=O)(C3)NC(=O)[C@H](CO)NC(=O)[C@H](Cc3ccccc3)NC(=O)[C@H](C)NC(=O)[C@H](C)NC(=O)[C@H](CC(=O)O)NC(=O)[C@H](CC(=O)O)NC1=O)NC(=O)[C@H](Cc1ccc3ccccc3c1)NC(=O)[C@H](CC(=O)O)NC2=O` (stereo partly drawn) [I-1109, Ac-PL3-Asp-2NapA-B5-Asp-Asp-Ala-Ala-Phe-Ser-PyrS2-2C1F-BztA-Gln-NH2]: the results for the IC50 in data set [1] and in data set [4] were 0.024 µM and more than 20 µM, respectively. In data set [2], this molecule displayed a chromatographic logD of 2.31. The Solubility in data set [3] (Solubility (uM)) was 45 µM (≈ 89.5 µg/mL).
As to `CC(=O)N1CCC[C@]12CC=CCCCC1(CCCC=CCCCOC(=O)N3CC[C@@](C(=O)N[C@@H](Cc4ccccc4Cl)C(=O)N[C@@H](Cc4csc5ccccc45)C(=O)N[C@@H](CCC(N)=O)C(N)=O)(C3)NC(=O)[C@H](CC(C)C)NC(=O)[C@H](Cc3ccccc3)NC(=O)[C@H](C)NC(=O)[C@H](C)NC(=O)[C@H](CC(=O)O)NC(=O)[C@H](CC(=O)O)NC1=O)NC(=O)[C@H](Cc1cccc3ccccc13)NC(=O)[C@H](CC(=O)O)NC2=O` (stereo partly drawn) [I-1110, Ac-PL3-Asp-1NapA-B5-Asp-Asp-Ala-Ala-Phe-Leu-PyrS2-2C1F-BztA-Gln-NH2], the IC50 in data set [1] is 0.038 µM; in data set [4], more than 20 µM. The chromatographic logD in data set [2] worked out at 2.37. The “Solubility” value in data set [3] was determined as 10 µM (≈ 20.2 µg/mL).
Turning to `CC(=O)N1CCC[C@]12CC=CCCCC1(CCCC=CCCCOC(=O)N3CC[C@@](C(=O)N[C@@H](Cc4ccccc4Cl)C(=O)N[C@@H](Cc4csc5ccccc45)C(=O)N[C@@H](CCC(N)=O)C(N)=O)(C3)NC(=O)[C@H](CC(C)C)NC(=O)[C@H](Cc3ccccc3)NC(=O)[C@H](C)NC(=O)[C@H](C)NC(=O)[C@H](CC(=O)O)NC(=O)[C@H](CC(=O)O)NC1=O)NC(=O)[C@H](Cc1ccc3ccccc3c1)NC(=O)[C@H](CC(=O)O)NC2=O` (stereo partly drawn) [I-1111, Ac-PL3-Asp-2NapA-B5-Asp-Asp-Ala-Ala-Phe-Leu-PyrS2-2C1F-BztA-Gln-NH2], the IC50 is 0.028 µM in data set [1] and more than 20 µM in data set [4]. In data set [2], this molecule returned a chromatographic logD of 2.36. Also, the “Solubility” value in data set [3] stood at 10 µM (≈ 20.2 µg/mL).
Regarding `CC(=O)N1CCC[C@]12CC=CCCCC1(CCCC=CCCCOC(=O)N3CC[C@@](C(=O)N[C@@H](Cc4ccccc4Cl)C(=O)N[C@@H](Cc4csc5ccccc45)C(=O)N[C@@H](CO)C(N)=O)(C3)NC(=O)[C@H]([C@@H](C)O)NC(=O)[C@H](Cc3ccccc3)NC(=O)[C@H](C)NC(=O)[C@H](C)NC(=O)[C@H](CC(=O)O)NC(=O)[C@H](CC(=O)O)NC1=O)NC(=O)[C@H](Cc1cccc3ccccc13)NC(=O)[C@H](CC(=O)O)NC2=O` (stereo partly drawn) [I-1114, Ac-PL3-Asp-1NapA-B5-Asp-Asp-Ala-Ala-Phe-Thr-PyrS2-2C1F-BztA-Ser-NH2], the IC50 in data set [1] is 0.02 µM; in data set [4], more than 20 µM. The molecule further had a chromatographic logD in data set [2] of 2.49. In data set [3] (Solubility (uM)), the Solubility is 28 µM (≈ 55 µg/mL).
As for `CC(=O)N1CCC[C@]12CC=CCCCC1(CCCC=CCCCOC(=O)N3CC[C@@](C(=O)N[C@@H](Cc4ccccc4Cl)C(=O)N[C@@H](Cc4csc5ccccc45)C(=O)N[C@@H](CO)C(N)=O)(C3)NC(=O)[C@H]([C@@H](C)O)NC(=O)[C@H](Cc3ccccc3)NC(=O)[C@H](C)NC(=O)[C@H](C)NC(=O)[C@H](CC(=O)O)NC(=O)[C@H](CC(=O)O)NC1=O)NC(=O)[C@H](Cc1ccc3ccccc3c1)NC(=O)[C@H](CC(=O)O)NC2=O` (stereo partly drawn) [I-1115, Ac-PL3-Asp-2NapA-B5-Asp-Asp-Ala-Ala-Phe-Thr-PyrS2-2C1F-BztA-Ser-NH2], the IC50 in data set [1] came out at 0.028 µM; in data set [4] it was 24.3 µM. The chromatographic logD in data set [2] came out at 2.5. In data set [3] (Solubility (uM)), this molecule registered a Solubility of 32 µM (≈ 62.8 µg/mL).
`COc1cccc(C[C@@H]2NC(=O)[C@H](C)NC(=O)[C@H](C)NC(=O)[C@H](CC(=O)O)NC(=O)[C@H](CC(=O)O)NC(=O)C3(CCCC=CCCCOC(=O)N4CC[C@@](C(=O)N[C@@H](Cc5ccccc5Cl)C(=O)N[C@@H](Cc5csc6ccccc56)C(=O)N[C@@H](CCC(N)=O)C(N)=O)(C4)NC(=O)[C@H](CO)NC2=O)CCCC=CC[C@]2(CCCN2C(C)=O)C(=O)N[C@@H](CC(=O)O)C(=O)N[C@@H](CC2CCCCC2)C(=O)N3)c1` (stereo partly drawn) [I-1118, Ac-PL3-Asp-Cha-B5-Asp-Asp-Ala-Ala-3OMeF-Ser-PyrS2-2C1F-BztA-Gln-NH2]: the IC50 in data set [1] was 0.024 µM; in data set [4], 29.5 µM. The molecule further showed a chromatographic logD in data set [2] of 2.34. This molecule also gave a Solubility in data set [3] (Solubility (uM)) of 37 µM (≈ 73.1 µg/mL).
Consider `CC(=O)N1CCC[C@]12CC=CCCCC1(CCCC=CCCCOC(=O)N3CC[C@@](C(=O)N[C@@H](Cc4ccccc4Cl)C(=O)N[C@@H](Cc4csc5ccccc45)C(=O)N[C@@H](CCC(N)=O)C(N)=O)(C3)NC(=O)[C@H](CO)NC(=O)[C@H](Cc3cccc(C(F)(F)F)c3)NC(=O)[C@H](C)NC(=O)[C@H](C)NC(=O)[C@H](CC(=O)O)NC(=O)[C@H](CC(=O)O)NC1=O)NC(=O)[C@H](CC1CCCCC1)NC(=O)[C@H](CC(=O)O)NC2=O` (stereo partly drawn) [I-1119, Ac-PL3-Asp-Cha-B5-Asp-Asp-Ala-Ala-3F3MeF-Ser-PyrS2-2C1F-BztA-Gln-NH2], for which the results for the IC50 in data set [1] and in data set [4] were 0.026 µM and 19.4 µM, respectively. Also, the chromatographic logD in data set [2] was 2.51. The molecule further gave a Solubility in data set [3] (Solubility (uM)) of 31 µM (≈ 62.4 µg/mL).
Take `CC(=O)N1CCC[C@]12CC=CCCCC1(CCCC=CCCCOC(=O)N3CC[C@@](C(=O)N[C@@H](Cc4ccccc4Cl)C(=O)N[C@@H](Cc4csc5ccccc45)C(=O)N[C@@H](CCC(N)=O)C(N)=O)(C3)NC(=O)[C@H](CO)NC(=O)[C@H](Cc3ccc(C(F)(F)F)cc3)NC(=O)[C@H](C)NC(=O)[C@H](C)NC(=O)[C@H](CC(=O)O)NC(=O)[C@H](CC(=O)O)NC1=O)NC(=O)[C@H](CC1CCCCC1)NC(=O)[C@H](CC(=O)O)NC2=O` (stereo partly drawn) [I-1120, Ac-PL3-Asp-Cha-B5-Asp-Asp-Ala-Ala-4F3MeF-Ser-PyrS2-2C1F-BztA-Gln-NH2]: the IC50 is 0.085 µM in data set [1] and more than 20 µM in data set [4]. Besides, in data set [2], the chromatographic logD was found to be 2.54. This molecule registered a Solubility in data set [3] (Solubility (uM)) of 41 µM (≈ 82.6 µg/mL).
As to `COc1cccc(C[C@@H]2NC(=O)[C@H](C)NC(=O)[C@H](C)NC(=O)[C@H](CC(=O)O)NC(=O)[C@H](CC(=O)O)NC(=O)C3(CCCC=CCCCOC(=O)N4CC[C@@](C(=O)N[C@@H](Cc5ccccc5Cl)C(=O)N[C@@H](Cc5csc6ccccc56)C(=O)N[C@@H](CCC(N)=O)C(N)=O)(C4)NC(=O)[C@H](CC(C)C)NC2=O)CCCC=CC[C@]2(CCCN2C(C)=O)C(=O)N[C@@H](CC(=O)O)C(=O)N[C@@H](CC(C)(C)C)C(=O)N3)c1` (stereo partly drawn) [I-1121, Ac-PL3-Asp-Npg-B5-Asp-Asp-Ala-Ala-3OMeF-Leu-PyrS2-2C1F-BztA-Gln-NH2], the values for the IC50 in data set [1] and in data set [4] were 0.018 µM and 9.2 µM, respectively. In data set [2], this molecule displayed a chromatographic logD of 2.31. In addition, the concentration in solution in data set [3] (Solubility (uM)) (Solubility) came to 41 µM (≈ 81 µg/mL).
